Assay results published in PMC2287205 (Analytical and Bioanalytical Chemistry, 2008).

Key:
[1] = target: ERα (Homo sapiens, UniProt P03372); assay type: binding; settings: mixture of five estrogenic compounds separated by gradient HPLC (Fig. 7)
[2] = Microsomal incubation with PB-induced rat liver microsomes; settings: 100 μM zearalenone, 120 min, 37 °C

Chain of ERα (P03372 311-547): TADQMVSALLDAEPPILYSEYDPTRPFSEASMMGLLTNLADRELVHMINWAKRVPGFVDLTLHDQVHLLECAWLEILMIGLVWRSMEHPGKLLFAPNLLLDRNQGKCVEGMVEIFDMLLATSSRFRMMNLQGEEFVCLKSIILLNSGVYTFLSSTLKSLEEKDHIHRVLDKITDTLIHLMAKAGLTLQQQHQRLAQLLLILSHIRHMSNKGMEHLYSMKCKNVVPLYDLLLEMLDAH

| Structure (SMILES) | ERα bioaffinity detected in HRS ERα FP trace [1] | Metabolism by rat liver microsomes [2] |
| --- | --- | --- |
| O=c1oc2cc(O)ccc2cc1-c1ccc(O)cc1 [coumarol, 7-Hydroxy-3-p-hydroxyphenylcoumarine] | possible to detect the ERα bioaffinities | – |
| C[C@H]1CCCC(=O)CCC/C=C/c2cc(O)cc(O)c2C(=O)O1 [zearalenone] | possible to detect the ERα bioaffinities | metabolized by rat liver microsomes into at least three major metabolites |
